Assays:
Human alphaherpesvirus 1 [1] = assay: Polymerizing activity of exonuclase deficient HSV1 DNA polymerase UL42 D368A mutant assessed as rate of nucleotide incorporation by pre-steady state single turnover assay
Human alphaherpesvirus 1 [2] = assay: Ratio of polymerization constant K to Kd for exonuclase deficient HSV1 DNA polymerase UL42 D368A mutant
[3] = Binding affinity to exonuclase deficient HSV1 DNA polymerase UL42 D368A mutant; parameters: species or system Human alphaherpesvirus 1
[4] = tested on: T1, DNA polymerase subunit gamma-1 (Homo sapiens), P54098 [E200A]; assay: Polymerizing activity of exonuclase deficient human recombinant DNA polymerase gamma E200A mutant assessed as rate of nucleotide incorporation by pre-steady state single nucleotide incorporation assay
T1 sequence (whole entry): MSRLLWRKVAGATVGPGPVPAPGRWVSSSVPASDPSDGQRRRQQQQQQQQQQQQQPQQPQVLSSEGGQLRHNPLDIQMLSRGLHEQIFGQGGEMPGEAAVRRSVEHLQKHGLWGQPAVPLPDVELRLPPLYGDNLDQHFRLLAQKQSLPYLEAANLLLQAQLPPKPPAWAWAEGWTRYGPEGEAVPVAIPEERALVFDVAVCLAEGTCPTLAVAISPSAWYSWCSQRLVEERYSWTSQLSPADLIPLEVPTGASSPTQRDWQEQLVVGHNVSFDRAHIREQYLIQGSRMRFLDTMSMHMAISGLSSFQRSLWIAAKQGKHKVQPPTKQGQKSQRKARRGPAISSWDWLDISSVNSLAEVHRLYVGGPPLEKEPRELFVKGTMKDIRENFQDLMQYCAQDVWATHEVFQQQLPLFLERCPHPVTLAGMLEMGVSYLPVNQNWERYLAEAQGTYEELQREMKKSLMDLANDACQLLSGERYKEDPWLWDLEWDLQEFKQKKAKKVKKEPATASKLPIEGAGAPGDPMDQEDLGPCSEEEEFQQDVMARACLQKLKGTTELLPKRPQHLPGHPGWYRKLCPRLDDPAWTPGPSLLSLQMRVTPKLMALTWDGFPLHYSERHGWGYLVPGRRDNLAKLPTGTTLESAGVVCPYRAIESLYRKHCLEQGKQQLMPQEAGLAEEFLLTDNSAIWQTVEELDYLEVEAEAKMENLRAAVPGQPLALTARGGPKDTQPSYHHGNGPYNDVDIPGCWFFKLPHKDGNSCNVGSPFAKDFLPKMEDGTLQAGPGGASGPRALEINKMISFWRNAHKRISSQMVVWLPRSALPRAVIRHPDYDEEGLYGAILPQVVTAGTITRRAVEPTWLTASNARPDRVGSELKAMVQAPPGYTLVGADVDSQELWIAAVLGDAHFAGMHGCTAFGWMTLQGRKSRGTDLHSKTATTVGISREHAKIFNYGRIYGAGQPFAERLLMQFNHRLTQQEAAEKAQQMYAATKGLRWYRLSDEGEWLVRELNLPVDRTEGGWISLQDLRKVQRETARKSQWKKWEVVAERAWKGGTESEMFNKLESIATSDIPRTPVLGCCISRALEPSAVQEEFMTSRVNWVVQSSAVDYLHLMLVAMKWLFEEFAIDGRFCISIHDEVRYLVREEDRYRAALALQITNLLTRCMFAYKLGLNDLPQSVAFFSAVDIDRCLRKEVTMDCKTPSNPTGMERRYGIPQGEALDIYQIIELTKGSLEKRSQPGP

[5] = tested on: T1, DNA polymerase subunit gamma-1 (Homo sapiens), P54098 [E200A]; assay: Ratio of polymerization constant K to Kd for human recombinant DNA polymerase gamma E200A mutant
[6] = biological target: DNA polymerase subunit gamma-1 (Homo sapiens, UniProt P54098, E200A); assay: Binding affinity to exonuclase deficient human recombinant DNA polymerase gamma E200A mutant
Human alphaherpesvirus 1 [7] = assay: Activity of wild type HSV1 DNA polymerase UL42 assessed as rate of excision of compound from correctly paired DNA primer during fast phase of excision
Human alphaherpesvirus 1 [8] = assay: Activity of wild type HSV1 DNA polymerase UL42 assessed as amplitude of excision of compound from correctly paired DNA primer during fast phase of excision
Human alphaherpesvirus 1 [9] = assay: Activity of wild type HSV1 DNA polymerase UL42 assessed as rate of excision of compound from 3'-frayed DNA primer with 8 mispaired bases at 3' end during fast phase of excision
Human alphaherpesvirus 1 [10] = assay: Activity of wild type HSV1 DNA polymerase UL42 assessed as amplitude of excision of compound from 3'-frayed DNA primer with 8 mispaired bases at 3' end during fast phase of excision
Human alphaherpesvirus 1 [11] = assay: Activity of wild type HSV1 DNA polymerase UL42 assessed as rate of excision of compound from correctly paired DNA primer during fast phase of excision in presence of 100 uM dNTPs
Human alphaherpesvirus 1 [12] = assay: Activity of wild type HSV1 DNA […] UL42 assessed as amplitude of excision of compound from correctly paired DNA primer during fast phase of excision in presence of 100 uM dNTPs
Human alphaherpesvirus 1 [13] = assay: Activity of wild type HSV1 DNA polymerase UL42 assessed as rate of excision of compound from 3'-frayed DNA primer with 8 mispaired bases at 3' end during fast phase of excision in presence of 100 uM dNTPs
Human alphaherpesvirus 1 [14] = assay: Activity of wild type HSV1 DNA polymerase UL42 assessed as amplitude of excision of compound from 3'-frayed DNA primer with 8 mispaired bases at 3' end during fast phase of excision in presence of 100 uM dNTPs
Homo sapiens [15] = organism: Homo sapiens; assay: Activity of human wild type DNA polymerase gamma assessed as rate of excision of compound from correctly paired DNA primer during fast phase of excision
Homo sapiens [16] = organism: Homo sapiens; assay: Activity of human wild type DNA polymerase gamma assessed as amplitude of excision of compound from correctly paired DNA primer during fast phase of excision
Homo sapiens [17] = organism: Homo sapiens; assay: Activity of human wild type DNA polymerase gamma assessed as rate of excision of compound from 3'-frayed DNA primer with 8 mispaired bases at 3' end during fast phase of excision
Homo sapiens [18] = organism: Homo sapiens; assay: Activity of human wild type DNA polymerase gamma assessed as amplitude of excision of compound from 3'-frayed DNA primer with 8 mispaired bases at 3' end during fast phase of excision
Homo sapiens [19] = organism: Homo sapiens; assay: Activity of human wild-type DNA polymerase gamma assessed as rate of excision of compound from correctly paired DNA primer during fast phase of excision in presence of 100 uM dNTPs
Homo sapiens [20] = organism: Homo sapiens; assay: Activity of human wild type DNA polymerase gamma assessed as amplitude of excision of compound from correctly paired DNA primer during fast phase of excision in presence of 100 uM dNTPs
Homo sapiens [21] = organism: Homo sapiens; assay: Activity of human wild type DNA polymerase gamma assessed as rate of excision of compound from 3'-frayed DNA primer with 8 mispaired bases at 3' end during fast phase of excision in presence of 100 uM dNTPs
Homo sapiens [22] = organism: Homo sapiens; assay: Activity of human wild type DNA polymerase gamma assessed as amplitude of excision of compound from 3'-frayed DNA primer with 8 mispaired bases at 3' end during fast phase of excision in presence of 100 uM dNTPs
Human alphaherpesvirus 1 [23] = assay: Activity of wild type HSV1 DNA polymerase UL42 assessed as rate of excision of compound from correctly paired DNA primer during slow phase of excision
Human alphaherpesvirus 1 [24] = assay: Activity of wild type HSV1 DNA polymerase UL42 assessed as amplitude of excision of compound from correctly paired DNA primer during slow phase of excision
Human alphaherpesvirus 1 [25] = assay: Activity of wild type HSV1 DNA polymerase UL42 assessed as rate of excision of compound from 3'-frayed DNA primer with 8 mispaired bases at 3' end during slow phase of excision
Human alphaherpesvirus 1 [26] = assay: Activity of wild type HSV1 DNA polymerase UL42 assessed as amplitude of excision of compound from 3'-frayed DNA primer with 8 mispaired bases at 3' end during slow phase of excision
Homo sapiens [27] = organism: Homo sapiens; assay: Activity of human wild type DNA polymerase gamma assessed as rate of excision of compound from correctly paired DNA primer during slow phase of excision
Homo sapiens [28] = organism: Homo sapiens; assay: Activity of human wild type DNA polymerase gamma assessed as amplitude of excision of compound from correctly paired DNA primer during slow phase of excision
Homo sapiens [29] = organism: Homo sapiens; assay: Activity of human wild-type DNA polymerase gamma assessed as rate of excision of compound from 3'-frayed DNA primer with 8 mispaired bases at 3' end during slow phase of excision
Homo sapiens [30] = organism: Homo sapiens; assay: Activity of human wild-type DNA polymerase gamma assessed as amplitude of excision of compound from 3'-frayed DNA primer with 8 mispaired bases at 3' end during slow phase of excision

Cc1cn([C@H]2C[C@H](O)[C@@H](COP(=O)(O)OP(=O)(O)OP(=O)(O)O)O2)c(=O)[nH]c1=O
K (Human alphaherpesvirus 1 [1]): 137 s⁻¹ | Ratio (Human alphaherpesvirus 1 [2]): 45 µM⁻¹ s⁻¹

Nc1nc2c(ncn2COCCOP(=O)(O)OP(=O)(O)OP(=O)(O)O)c(=O)[nH]1 [ACYCLOVIR TRIPHOSPHATE]
K (Human alphaherpesvirus 1 [1]): 10.1 s⁻¹ | Kd [3]: 6 µM | Ratio (Human alphaherpesvirus 1 [2]): 1.7 µM⁻¹ s⁻¹ | K [4]: 1.03 s⁻¹ | Ratio [5]: 0.17 µM⁻¹ s⁻¹ | Kd [6]: 6 µM

Nc1nc(=O)c2ncn(COCCOP(=O)(O)O)c2[nH]1
Activity (Human alphaherpesvirus 1 [7]): 5.1 ×10⁻⁴ /s | Activity (Human alphaherpesvirus 1 [8]): 86 nM | Activity (Human alphaherpesvirus 1 [9]): > 0.3 s⁻¹ | Activity (Human alphaherpesvirus 1 [10]): 90 nM | Activity (Human alphaherpesvirus 1 [11]): 2 ×10⁻⁴ /s | Activity (Human alphaherpesvirus 1 [12]): 85 nM | Activity (Human alphaherpesvirus 1 [13]): > 0.3 s⁻¹ | Activity (Human alphaherpesvirus 1 [14]): 90 nM | Activity (Homo sapiens [15]): 2.1 ×10⁻³ /s | Activity (Homo sapiens [16]): 97 nM | Activity (Homo sapiens [17]): 1.3 ×10⁻³ /s | Activity (Homo sapiens [18]): 94 nM | Activity (Homo sapiens [19]): 9.2 ×10⁻⁵ /s | Activity (Homo sapiens [20]): 91 nM | Activity (Homo sapiens [21]): 3 ×10⁻⁴ /s | Activity (Homo sapiens [22]): 90 nM

Nc1nc(O)c2ncn([C@H]3C[C@H](O)[C@@H](COP(=O)(O)O)O3)c2n1
Activity (Human alphaherpesvirus 1 [7]): 12 s⁻¹ | Activity (Human alphaherpesvirus 1 [8]): 11 nM | Activity (Human alphaherpesvirus 1 [23]): 0.25 s⁻¹ | Activity (Human alphaherpesvirus 1 [24]): 77 nM | Activity (Human alphaherpesvirus 1 [9]): 125 s⁻¹ | Activity (Human alphaherpesvirus 1 [10]): 65 nM | Activity (Human alphaherpesvirus 1 [25]): 1.3 s⁻¹ | Activity (Human alphaherpesvirus 1 [26]): 24 nM | Activity (Homo sapiens [15]): 0.45 s⁻¹ | Activity (Homo sapiens [16]): 16 nM | Activity (Homo sapiens [27]): 0.02 s⁻¹ | Activity (Homo sapiens [28]): 74 nM | Activity (Homo sapiens [17]): 2.6 s⁻¹ | Activity (Homo sapiens [18]): 16 nM | Activity (Homo sapiens [29]): 0.27 s⁻¹ | Activity (Homo sapiens [30]): 27 nM

Nc1nc2c(ncn2[C@H]2C[C@H](O)[C@@H](COP(=O)(O)OP(=O)(O)OP(=O)(O)O)O2)c(=O)[nH]1 [DEOXYGUANOSINE TRIPHOSPHATE]
K (Human alphaherpesvirus 1 [1]): 640 s⁻¹ | Kd [3]: 0.8 µM | Ratio (Human alphaherpesvirus 1 [2]): 80 µM⁻¹ s⁻¹ | K [4]: 37 s⁻¹ | Ratio [5]: 45 µM⁻¹ s⁻¹ | Kd [6]: 0.8 µM

Source: ChEMBL document CHEMBL1156481, “Enzymatic therapeutic index of acyclovir. Viral versus human polymerase gamma specificity” (J Biol Chem, 2007)
